Data as given in ChEMBL document CHEMBL2074308, “5'-Amino acid esters of antiviral nucleosides, acyclovir, and AZT are absorbed by the intestinal PEPT1 peptide transporter” (Pharm Res, 1998).

Experiments:
[1] = target: T1, Solute carrier family 15 member 1 (Homo sapiens, UniProt P46059); test: TP_TRANSPORTER: inhibition of Gly-Sar uptake (Gly-Sar: 20 uM) in PEPT1-expressing CHO cells; type: functional, cell-based
T1 sequence (P46059 whole entry): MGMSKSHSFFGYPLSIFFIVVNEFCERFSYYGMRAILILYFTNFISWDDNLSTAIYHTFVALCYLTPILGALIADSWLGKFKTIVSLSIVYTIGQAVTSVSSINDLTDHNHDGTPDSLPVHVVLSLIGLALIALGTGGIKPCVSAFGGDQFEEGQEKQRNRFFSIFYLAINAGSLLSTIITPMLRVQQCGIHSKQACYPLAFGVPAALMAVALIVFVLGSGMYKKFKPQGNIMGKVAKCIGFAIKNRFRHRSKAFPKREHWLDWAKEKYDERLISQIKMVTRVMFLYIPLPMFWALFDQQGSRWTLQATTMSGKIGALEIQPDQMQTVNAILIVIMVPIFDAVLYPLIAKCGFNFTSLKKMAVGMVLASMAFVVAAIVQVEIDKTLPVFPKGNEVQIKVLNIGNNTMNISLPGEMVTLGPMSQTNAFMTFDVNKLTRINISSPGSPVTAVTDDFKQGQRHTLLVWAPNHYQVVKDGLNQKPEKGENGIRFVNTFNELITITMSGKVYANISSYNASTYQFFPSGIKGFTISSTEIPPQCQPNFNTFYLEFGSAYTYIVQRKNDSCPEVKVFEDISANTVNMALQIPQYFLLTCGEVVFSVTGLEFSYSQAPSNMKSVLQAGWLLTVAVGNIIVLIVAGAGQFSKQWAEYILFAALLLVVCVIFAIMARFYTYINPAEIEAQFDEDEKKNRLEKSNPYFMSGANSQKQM

[2] = target: T1, Solute carrier family 15 member 1; test: TP_TRANSPORTER: inhibition of Gly-Sar uptake, D-form (Gly-Sar: 20 uM) in PEPT1-expressing CHO cells; type: functional, cell-based
[3] = target: T1, Solute carrier family 15 member 1; test: TP_TRANSPORTER: inhibition of Gly-Sar uptake, L-form (Gly-Sar: 20 uM) in PEPT1-expressing CHO cells; type: functional, cell-based
[4] = substrate: CC(C)[C@H](N)C(=O)OCCOCn1cnc2c(=O)nc(N)[nH]c21; conditions: Caco-2
Description: TP_TRANSPORTER: transepithelial transport (apical to basal), L-form in Caco-2 cells

For `CC(C)[C@H](N)C(=O)OCCOCn1cnc2c(=O)[nH]c(N)nc21` [VALACYCLOVIR], the IC50 [1] was 400 µM, the IC50 [2] was 3400 µM and the IC50 [3] was 1100 µM.

`CC1=C(C(=O)O)N2C(=O)[C@@H](NC(=O)[C@H](N)C3=CCC=CC3)[C@H]2SC1` [CEPHRADINE] was tested, and the IC50 [1] was 15000 µM.

`NCC(=O)OCCOCn1cnc2c(=O)[nH]c(N)nc21` [GLYCYL ESTER OF ACYCLOVIR] gave an IC50 [1] of 1400 µM.

`CCOC(=O)[C@H](CCc1ccccc1)N[C@@H](C)C(=O)N1CCC[C@H]1C(=O)O` [ENALAPRIL] was tested, and the IC50 [1] was 15000 µM.

B1: Solute carrier family 15 member 1 (Homo sapiens), P46059 (protein)
chain: MGMSKSHSFFGYPLSIFFIVVNEFCERFSYYGMRAILILYFTNFISWDDNLSTAIYHTFVALCYLTPILGALIADSWLGKFKTIVSLSIVYTIGQAVTSVSSINDLTDHNHDGTPDSLPVHVVLSLIGLALIALGTGGIKPCVSAFGGDQFEEGQEKQRNRFFSIFYLAINAGSLLSTIITPMLRVQQCGIHSKQACYPLAFGVPAALMAVALIVFVLGSGMYKKFKPQGNIMGKVAKCIGFAIKNRFRHRSKAFPKREHWLDWAKEKYDERLISQIKMVTRVMFLYIPLPMFWALFDQQGSRWTLQATTMSGKIGALEIQPDQMQTVNAILIVIMVPIFDAVLYPLIAKCGFNFTSLKKMAVGMVLASMAFVVAAIVQVEIDKTLPVFPKGNEVQIKVLNIGNNTMNISLPGEMVTLGPMSQTNAFMTFDVNKLTRINISSPGSPVTAVTDDFKQGQRHTLLVWAPNHYQVVKDGLNQKPEKGENGIRFVNTFNELITITMSGKVYANISSYNASTYQFFPSGIKGFTISSTEIPPQCQPNFNTFYLEFGSAYTYIVQRKNDSCPEVKVFEDISANTVNMALQIPQYFLLTCGEVVFSVTGLEFSYSQAPSNMKSVLQAGWLLTVAVGNIIVLIVAGAGQFSKQWAEYILFAALLLVVCVIFAIMARFYTYINPAEIEAQFDEDEKKNRLEKSNPYFMSGANSQKQM
Work on B1 yielded a Km [4] of 292 µM.
